We go through two compounds from ChEMBL document CHEMBL5335815, “The Greater Celandine: Identification and Characterization of an Antimicrobial Peptide from Chelidonium majus” (J Nat Prod, 2024).

Calls of active or inactive are those of the source. The rule behind the calls is not given here. Bridge positions count the residues as written; N and C are the ends. Peptide text beside a SMILES is read from it.

Series [1] can be described thus: Proteolytic stability assessed as proteinase K (unknown origin) mediated compound degradation incubated for 10 mins by LC-MS analysis. Type of series: ADME. To be noted: human.
Series [2] can be described thus: Proteolytic stability assessed as proteinase K (unknown origin)-mediated compound degradation in presence of reduced and alkylated cysteines measured after 10 mins by LC-MS analysis. Type of series: ADME.
Series [3] has as its system Proteinase K (Engyodontium album). The series is described as follows: Inhibition of proteinase K (Engyodontium album).
In the next series the test system is Escherichia coli. The series is described as follows: Induction of BasS protein expression in Escherichia coli assessed as fold increase at 5 microg/ml. The series is classed as functional. To be noted: dose 5.0 µg/ml.

With `CC[C@H](C)[C@@H]1NC(=O)[C@H](Cc2ccccc2)NC(=O)[C@H](Cc2ccccc2)NC(=O)[C@H](CCCNC(=N)N)NC(=O)[C@H](CCCNC(=N)N)NC(=O)[C@H](CCCCN)NC(=O)[C@H](CCCCN)NC(=O)[C@H](CC(=O)O)NC(=O)[C@H](C(C)C)NC(=O)[C@H](CO)NC(=O)[C@H](CCCCN)NC(=O)[C@@H]2CSSC[C@@H](C(=O)N[C@@H](CC(N)=O)C(=O)O)NC(=O)[C@@H]3CSSC[C@H](N)C(=O)NCC(=O)N[C@@H](CSSC[C@H](NC(=O)[C@H]([C@@H](C)O)NC(=O)[C@@H]4CCCN4C1=O)C(=O)N[C@@H](CC(C)C)C(=O)N[C@@H](CCCNC(=N)N)C(=O)N[C@@H](CO)C(=O)N3)C(=O)N[C@@H](Cc1ccc(O)cc1)C(=O)N2` (H-CGCYCKSVDKKRRFFIPTCLRSCCN-OH; disulfide 1-23, 3-19, 5-24), the Stability result is “Stable” in series [1] and “Unstable” in series [2]. The inhibition entry in series [3] is “inactive”.

Take `CC[C@H](C)[C@H](NC(=O)[C@H](Cc1ccccc1)NC(=O)[C@H](Cc1ccccc1)NC(=O)[C@H](CCCNC(=N)N)NC(=O)[C@H](CCCNC(=N)N)NC(=O)[C@H](CCCCN)NC(=O)[C@H](CCCCN)NC(=O)[C@H](CC(=O)O)NC(=O)[C@@H](NC(=O)[C@H](CO)NC(=O)[C@H](CCCCN)NC(=O)[C@H](CS)NC(=O)[C@H](Cc1ccc(O)cc1)NC(=O)[C@H](CS)NC(=O)CNC(=O)[C@@H](N)CS)C(C)C)C(=O)N1CCC[C@H]1C(=O)N[C@H](C(=O)N[C@@H](CS)C(=O)N[C@@H](CC(C)C)C(=O)N[C@@H](CCCNC(=N)N)C(=O)N[C@@H](CO)C(=O)N[C@@H](CS)C(=O)N[C@@H](CS)C(=O)N[C@@H](CC(N)=O)C(=O)O)[C@@H](C)O` (H-CGCYCKSVDKKRRFFIPTCLRSCCN-OH): in the series with Escherichia coli, the fold change (FC) stood at 83.8.
